Among the data in patent US8871753B2, “Macrocyclic compounds and their use as kinase inhibitors” (Incyte Corporation, priority 2008, dated 2014) are IC50 values, retold here.

Assay type in all cases: biochemical
Assay [1] has as its target T1, human JAK1 (a.a. 837-1142) (Homo sapiens, UniProt P23458).
T1 construct: human JAK1 (a.a. 837-1142); His tag (N); made in house; host or cells: insect cells (baculovirus)
Kind of assay: In vitro JAK kinase assay (HTRF, phosphorylation of a biotinylated peptide), JAK1. To be noted: Table B1; read-out: JAK1 IC50. In a few lines: (§1)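 Kinase reactions ran at room temperature for 1 h with ATP matched per isoform (JAK1 90 μM, JAK2 30 μM, JAK3 3 μM). After an EDTA stop, the phosphorylated biotin-peptide was read by HTRF using Eu-Py20 and SA-APC after 40 min binding.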
(In general: Time-resolved FRET reads energy transfer from a long-lived donor to a nearby acceptor.)

Assay [2] concerns the target T2, human JAK2 (a.a. 828-1132) (Homo sapiens, UniProt O60674).
T2 construct: JAK2 (a.a. 828-1132); His tag (N); made in house; host or cells: insect cells (baculovirus)
As to the kind of experiment: In vitro JAK kinase assay (HTRF, phosphorylation of a biotinylated peptide), JAK2. To be noted: Table B1. Put shortly:
as §1

The target of assay [3] is T3, human JAK3 (a.a. 781-1124) (Homo sapiens, UniProt P52333).
T3 construct: JAK3 (a.a. 781-1124); His tag (N); made in house; host or cells: insect cells (baculovirus)
T3 sequence (P52333 781-1124): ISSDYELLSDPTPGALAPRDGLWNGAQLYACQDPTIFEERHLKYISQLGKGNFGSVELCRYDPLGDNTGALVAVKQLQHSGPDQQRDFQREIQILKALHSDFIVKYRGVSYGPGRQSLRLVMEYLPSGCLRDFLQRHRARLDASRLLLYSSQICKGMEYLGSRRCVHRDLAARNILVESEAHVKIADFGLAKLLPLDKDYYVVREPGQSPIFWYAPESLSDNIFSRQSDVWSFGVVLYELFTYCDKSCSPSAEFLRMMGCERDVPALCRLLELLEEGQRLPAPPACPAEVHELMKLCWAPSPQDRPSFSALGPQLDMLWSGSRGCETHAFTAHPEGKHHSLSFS
As to the kind of experiment: In vitro JAK kinase assay (HTRF, phosphorylation of a biotinylated peptide), JAK3. Particulars: Table B1. In a few lines: as §1

The target of another assay is TYK2 (Homo sapiens, UniProt P29597). Kind of assay: TYK2 kinase inhibition (Table A1). To be noted: Table B1.
TYK2, sequence (P29597 whole entry): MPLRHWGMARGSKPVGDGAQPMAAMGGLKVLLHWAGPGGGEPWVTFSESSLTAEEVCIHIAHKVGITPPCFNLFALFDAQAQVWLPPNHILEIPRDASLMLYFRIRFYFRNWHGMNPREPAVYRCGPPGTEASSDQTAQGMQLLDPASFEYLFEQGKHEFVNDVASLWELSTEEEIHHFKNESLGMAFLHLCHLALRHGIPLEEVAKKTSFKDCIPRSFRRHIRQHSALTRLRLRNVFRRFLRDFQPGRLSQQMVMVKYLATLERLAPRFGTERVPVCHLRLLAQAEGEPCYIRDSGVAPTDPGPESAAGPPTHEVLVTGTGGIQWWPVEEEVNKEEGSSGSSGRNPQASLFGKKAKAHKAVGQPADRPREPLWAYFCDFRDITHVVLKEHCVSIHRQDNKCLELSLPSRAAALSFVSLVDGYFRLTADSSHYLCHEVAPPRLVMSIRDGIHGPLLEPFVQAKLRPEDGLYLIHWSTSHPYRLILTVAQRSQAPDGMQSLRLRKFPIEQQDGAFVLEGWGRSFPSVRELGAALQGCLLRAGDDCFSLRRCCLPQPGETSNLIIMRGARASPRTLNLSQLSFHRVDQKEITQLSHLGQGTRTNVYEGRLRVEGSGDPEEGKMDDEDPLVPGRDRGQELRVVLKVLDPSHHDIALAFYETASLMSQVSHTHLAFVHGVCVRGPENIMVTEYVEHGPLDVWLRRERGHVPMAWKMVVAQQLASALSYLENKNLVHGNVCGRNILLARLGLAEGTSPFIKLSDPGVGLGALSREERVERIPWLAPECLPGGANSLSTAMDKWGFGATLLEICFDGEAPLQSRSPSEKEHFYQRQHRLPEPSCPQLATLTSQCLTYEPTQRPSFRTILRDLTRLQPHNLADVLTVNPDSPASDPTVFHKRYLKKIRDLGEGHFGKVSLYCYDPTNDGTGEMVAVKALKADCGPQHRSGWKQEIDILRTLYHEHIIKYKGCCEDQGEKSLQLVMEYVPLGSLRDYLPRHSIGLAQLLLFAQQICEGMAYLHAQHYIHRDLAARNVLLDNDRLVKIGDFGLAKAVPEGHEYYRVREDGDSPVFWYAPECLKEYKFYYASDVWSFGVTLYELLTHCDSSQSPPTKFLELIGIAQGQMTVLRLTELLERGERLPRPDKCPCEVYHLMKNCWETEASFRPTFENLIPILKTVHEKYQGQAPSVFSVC
In assay [4] the target is T4, Recombinant Human Anaplastic Lymphoma Kinase (Homo sapiens, UniProt Q9UM73).
T4 construct: purchased Invitrogen, Carlsbad, Calif
T4 sequence (Q9UM73 19-1620): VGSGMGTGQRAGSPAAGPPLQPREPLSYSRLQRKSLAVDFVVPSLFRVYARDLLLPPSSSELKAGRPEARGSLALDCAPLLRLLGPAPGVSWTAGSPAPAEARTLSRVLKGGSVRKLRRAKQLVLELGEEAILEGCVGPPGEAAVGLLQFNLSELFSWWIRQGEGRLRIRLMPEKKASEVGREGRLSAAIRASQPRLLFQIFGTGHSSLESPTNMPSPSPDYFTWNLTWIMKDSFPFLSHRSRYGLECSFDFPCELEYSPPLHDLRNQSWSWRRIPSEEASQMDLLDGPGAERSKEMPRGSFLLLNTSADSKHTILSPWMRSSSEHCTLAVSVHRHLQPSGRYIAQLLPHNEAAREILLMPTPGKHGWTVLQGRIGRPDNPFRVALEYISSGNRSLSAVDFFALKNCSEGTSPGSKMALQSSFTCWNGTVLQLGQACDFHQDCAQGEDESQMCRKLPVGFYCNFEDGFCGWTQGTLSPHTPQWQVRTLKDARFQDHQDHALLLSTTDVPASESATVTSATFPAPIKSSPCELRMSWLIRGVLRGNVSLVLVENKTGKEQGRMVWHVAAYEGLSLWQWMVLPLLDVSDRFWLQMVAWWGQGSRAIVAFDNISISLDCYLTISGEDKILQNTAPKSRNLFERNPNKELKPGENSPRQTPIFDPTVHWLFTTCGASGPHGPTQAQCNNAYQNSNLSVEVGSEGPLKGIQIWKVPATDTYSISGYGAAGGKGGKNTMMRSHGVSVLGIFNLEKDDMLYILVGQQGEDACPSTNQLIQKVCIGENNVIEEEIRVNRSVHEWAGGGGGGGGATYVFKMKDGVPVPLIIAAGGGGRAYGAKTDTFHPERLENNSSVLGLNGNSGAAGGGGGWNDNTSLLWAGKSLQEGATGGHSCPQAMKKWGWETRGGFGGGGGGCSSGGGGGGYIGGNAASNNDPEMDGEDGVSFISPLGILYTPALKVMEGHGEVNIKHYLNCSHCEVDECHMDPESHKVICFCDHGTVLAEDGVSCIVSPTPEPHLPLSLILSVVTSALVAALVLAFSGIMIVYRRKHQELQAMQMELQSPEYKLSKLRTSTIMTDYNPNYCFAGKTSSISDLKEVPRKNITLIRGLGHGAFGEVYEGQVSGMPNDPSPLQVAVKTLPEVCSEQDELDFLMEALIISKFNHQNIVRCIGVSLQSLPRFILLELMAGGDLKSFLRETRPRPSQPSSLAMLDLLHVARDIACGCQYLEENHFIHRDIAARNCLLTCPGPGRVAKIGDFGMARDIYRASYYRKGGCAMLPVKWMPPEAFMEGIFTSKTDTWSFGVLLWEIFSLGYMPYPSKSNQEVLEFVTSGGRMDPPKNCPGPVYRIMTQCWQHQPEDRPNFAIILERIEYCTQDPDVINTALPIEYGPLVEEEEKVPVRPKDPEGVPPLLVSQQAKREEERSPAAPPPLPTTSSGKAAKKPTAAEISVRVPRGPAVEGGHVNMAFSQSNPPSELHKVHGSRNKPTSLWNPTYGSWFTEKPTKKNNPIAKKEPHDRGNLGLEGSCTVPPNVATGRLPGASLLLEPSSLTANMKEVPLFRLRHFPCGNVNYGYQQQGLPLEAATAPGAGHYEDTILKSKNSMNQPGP
As to the kind of experiment: ALK HTRF kinase assay. Particulars: Table B1; cells without percent sign. Put shortly: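 Recombinant human ALK phosphorylated a biotinylated synthetic peptide. Phosphotyrosine was detected by TR-FRET between a Eu-labelled anti-phosphotyrosine antibody and streptavidin-allophycocyanin. IC50 values came from fitting signal against inhibitor concentration to a four-parameter logistic equation with variable Hill slope.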

Counter-ions that a name gives are not always drawn.

T2 sequence (O60674 828-1132): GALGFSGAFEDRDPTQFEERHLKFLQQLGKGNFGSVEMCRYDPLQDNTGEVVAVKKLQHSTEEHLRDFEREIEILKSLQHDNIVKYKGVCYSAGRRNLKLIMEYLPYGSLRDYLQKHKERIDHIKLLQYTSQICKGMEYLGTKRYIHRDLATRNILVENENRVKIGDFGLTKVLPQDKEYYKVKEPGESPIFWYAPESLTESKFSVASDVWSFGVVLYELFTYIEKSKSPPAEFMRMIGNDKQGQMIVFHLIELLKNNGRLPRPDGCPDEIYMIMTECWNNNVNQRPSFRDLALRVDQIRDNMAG
T1 sequence (P23458 849-1154): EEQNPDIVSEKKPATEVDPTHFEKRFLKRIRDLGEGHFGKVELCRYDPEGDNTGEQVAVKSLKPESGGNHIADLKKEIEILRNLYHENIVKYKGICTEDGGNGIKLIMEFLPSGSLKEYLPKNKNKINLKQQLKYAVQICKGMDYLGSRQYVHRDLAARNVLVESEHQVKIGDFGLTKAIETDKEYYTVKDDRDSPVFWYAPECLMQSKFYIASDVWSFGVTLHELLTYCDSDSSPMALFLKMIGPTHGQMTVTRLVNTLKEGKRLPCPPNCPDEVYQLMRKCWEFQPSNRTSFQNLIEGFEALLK

As to `O=C(Nc1ccc2cc1CCc1cccc(c1)Nc1ncc(Cl)c(n1)N2)c1ccccc1Cl` [Example B41, 2-Chloro-N-[6-chloro-2,4,8,22-tetraazatetracyclo[14.3.1.1(3,7).1(9,13)]docosa-1(20),3(22),4,6,9(21),10,12,16,18-nonaen-12-yl]benzamide hydrochloride], the half-inhibitory concentration (IC50) (as a rule, the concentration at which inhibition is half-maximal) in assay [1] stood at 1.7 nM; in assay [2] it was 0.63 nM; in assay [3] it was 6.5 nM; on TYK2 it was 2.3 nM; in assay [4], 140 nM.

In the case of `O=C(Nc1ccc2cc1CCc1cccc(c1)Nc1ncc(Cl)c(n1)N2)c1cccc(Cl)c1` [Example B42, 3-Chloro-N-[6-chloro-2,4,8,22-tetraazatetracyclo[14.3.1.1(3,7).1(9,13)]docosa-1(20),3(22),4,6,9(21),10,12,16,18-nonaen-12-yl]benzamide hydrochloride], the IC50 is 1.7 nM in assay [1]; 0.75 nM in assay [2]; 7 nM in assay [3]; 3.9 nM against TYK2; 310 nM in assay [4].

As for `O=C(Nc1ccc2cc1CCc1cccc(c1)Nc1ncc(Cl)c(n1)N2)c1ccc(Cl)cc1` [Example B43, 4-Chloro-N-[6-chloro-2,4,8,22-tetraazatetracyclo[14.3.1.1(3,7).1(9,13)]docosa-1(20),3(22),4,6,9(21),10,12,16,18-nonaen-12-yl]benzamide hydrochloride], the concentration for half-maximal inhibition (IC50) is 0.79 nM in assay [1]; 1.1 nM in assay [2]; 6.7 nM in assay [3]; 2.9 nM against TYK2; 170 nM in assay [4].

On to `O=C(Nc1ccc2cc1CCc1cccc(c1)Nc1ncc(Cl)c(n1)N2)c1cnccn1` [Example B44, N-[6-Chloro-2,4,8,22-tetraazatetracyclo[14.3.1.1(3,7).1(9,13)]docosa-1(20), 3(22),4,6,9(21),10,12,16,18-nonaen-12-yl]pyrazine-2-carboxamide bis(trifluoroacetate)], for which the concentration for half-maximal inhibition (IC50) in assay [1] was determined as 13 nM; in assay [2] it was 2.9 nM; in assay [3], 48 nM; against TYK2 it was 22 nM; in assay [4], 300 nM.

On to `CC(=O)Nc1ccc(C(=O)Nc2ccc3cc2CCc2cccc(c2)Nc2ncc(Cl)c(n2)N3)cc1` [Example B45, 4-(Acetylamino)-N-[6-chloro-2,4,8,22-tetraazatetracyclo[14.3.1.1(3,7).1(9,13)]docosa-1(20),3(22),4,6,9(21),10,12,16,18-nonaen-12-yl]benzamide trifluoroacetate], for which the IC50 in assay [1] came to 0.88 nM; in assay [2], 0.6 nM; in assay [3] it was 3.7 nM; on TYK2 it was 0.53 nM; in assay [4], 95 nM.

`Cc1cccc(C(=O)Nc2ccc3cc2CCc2cccc(c2)Nc2ncc(Cl)c(n2)N3)c1` [Example B46, N-[6-Chloro-2,4,8,22-tetraazatetracyclo[14.3.1.1(3,7).1(9,13)]docosa-1(20), 3(22),4,6,9(21),10,12,16,18-nonaen-12-yl]-3-methylbenzamide trifluoroacetate]: the 50% inhibitory concentration (IC50) in assay [1] is 2.5 nM; in assay [2], 2.3 nM; in assay [3], 9.7 nM; against TYK2 it was 3.6 nM; in assay [4] it was 330 nM.

Regarding `Cc1ccc(C(=O)Nc2ccc3cc2CCc2cccc(c2)Nc2ncc(Cl)c(n2)N3)cc1` [Example B47, N-[6-Chloro-2,4,8,22-tetraazatetracyclo[14.3.1.1(3,7).1(9,13)]docosa-1(20), 3(22),4,6,9(21),10,12,16,18-nonaen-12-yl]-4-methylbenzamide trifluoroacetate], the half-maximal inhibitory concentration (IC50) in assay [1] came to 0.7 nM; in assay [2] it was 1.5 nM; in assay [3] it was 9.5 nM; at TYK2 it was 3.2 nM; in assay [4] it was 180 nM.

For the molecule `O=C(Nc1ccc2cc1CCc1cccc(c1)Nc1ncc(Cl)c(n1)N2)c1cccc(F)c1` [Example B48, N-[6-Chloro-2,4,8,22-tetraazatetracyclo[14.3.1.1(3,7).1(9,13)]docosa-1(20), 3(22),4,6,9(21),10,12,16,18-nonaen-12-yl]-3-fluorobenzamide trifluoroacetate], the IC50 was 0.96 nM in assay [1]; 0.44 nM in assay [2]; 2.6 nM in assay [3]; 1.7 nM on TYK2; 160 nM in assay [4].

For the molecule `O=C(Nc1ccc2cc1CCc1cccc(c1)Nc1ncc(Cl)c(n1)N2)c1ccc(F)cc1` [Example B49, N-[6-Chloro-2,4,8,22-tetraazatetracyclo[14.3.1.1(3,7).1(9,13)]docosa-1(20), 3(22),4,6,9(21),10,12,16,18-nonaen-12-yl]-4-fluorobenzamide trifluoroacetate], the IC50 is 0.59 nM in assay [1]; 0.54 nM in assay [2]; 3.6 nM in assay [3]; 1.4 nM at TYK2; 80 nM in assay [4].

In the case of `Cn1cccc1C(=O)Nc1ccc2cc1CCc1cccc(c1)Nc1ncc(Cl)c(n1)N2` [Example B50, N-[6-Chloro-2,4,8,22-tetraazatetracyclo[14.3.1.1(3,7).1(9,13)]docosa-1(20), 3(22),4,6,9(21),10,12,16,18-nonaen-12-yl]-1-methyl-1H-pyrrole-2-carboxamide trifluoroacetate], the IC50 in assay [1] was determined as 0.44 nM; in assay [2], 0.28 nM; in assay [3], 2.5 nM; on TYK2 it was 2.3 nM; in assay [4], 230 nM.

In the case of `Cn1cncc1C(=O)Nc1ccc2cc1CCc1cccc(c1)Nc1ncc(Cl)c(n1)N2` [Example B51, N-[6-Chloro-2,4,8,22-tetraazatetracyclo[14.3.1.1(3,7).1(9,13)]docosa-1(20), 3(22),4,6,9(21),10,12,16,18-nonaen-12-yl]-1-methyl-1H-imidazole-5-carboxamide bis(trifluoroacetate)], the IC50 in assay [1] was 2.7 nM; in assay [2], 0.91 nM; in assay [3], 4.7 nM; against TYK2 it was 3.3 nM; in assay [4], 300 nM.

Consider `O=C(Nc1ccc2cc1CCc1cccc(c1)Nc1ncc(Cl)c(n1)N2)c1nccs1` [Example B52, N-[6-Chloro-2,4,8,22-tetraazatetracyclo[14.3.1.1(3,7).1(9,13)]docosa-1(20), 3(22),4,6,9(21),10,12,16,18-nonaen-12-yl]-1,3-thiazole-2-carboxamide trifluoroacetate], for which the IC50 came to 3.7 nM in assay [1]; 1.8 nM in assay [2]; 17 nM in assay [3]; 6.3 nM on TYK2; 910 nM in assay [4].

Consider `O=C(Nc1ccc2cc1CCc1cccc(c1)Nc1ncc(Cl)c(n1)N2)c1ccno1` [Example B53, N-[6-Chloro-2,4,8,22-tetraazatetracyclo[14.3.1.1(3,7).1(9,13)]docosa-1(20), 3(22),4,6,9(21),10,12,16,18-nonaen-12-yl]isoxazole-5-carboxamide trifluoroacetate], for which the IC50 came to 2.8 nM in assay [1]; 2.3 nM in assay [2]; 17 nM in assay [3]; 8 nM against TYK2; 720 nM in assay [4].

For `CCC(=O)Nc1ccc2cc1CCc1cccc(c1)Nc1ncc(Cl)c(n1)N2` [Example B54, N-[6-Chloro-2,4,8,22-tetraazatetracyclo[14.3.1.1(3,7).1(9,13)]docosa-1(20), 3(22),4,6,9(21),10,12,16,18-nonaen-12-yl]propanamide trifluoroacetate], the IC50 in assay [1] worked out at 4.9 nM; in assay [2] it was 3.9 nM; in assay [3], 5.9 nM; against TYK2, 14 nM; in assay [4], 970 nM.

Consider `CC(C)C(=O)Nc1ccc2cc1CCc1cccc(c1)Nc1ncc(Cl)c(n1)N2` [Example B55, N-[6-Chloro-2,4,8,22-tetraazatetracyclo[14.3.1.1(3,7).1(9,13)]docosa-1(20), 3(22),4,6,9(21),10,12,16,18-nonaen-12-yl]-2-methylpropanamide trifluoroacetate], for which the concentration for half-maximal inhibition (IC50) in assay [1] worked out at 12 nM; in assay [2] it was 2.7 nM; in assay [3] it was 1.1 nM; against TYK2 it was 23 nM; in assay [4], 930 nM.

Regarding `CCCC(=O)Nc1ccc2cc1CCc1cccc(c1)Nc1ncc(Cl)c(n1)N2` [Example B56, N-[6-Chloro-2,4,8,22-tetraazatetracyclo[14.3.1.1(3,7).1(9,13)]docosa-1(20), 3(22),4,6,9(21),10,12,16,18-nonaen-12-yl]butanamide trifluoroacetate], the concentration for half-maximal inhibition (IC50) in assay [1] came to 5.9 nM; in assay [2] it was 2 nM; in assay [3], 1.5 nM; against TYK2, 14 nM; in assay [4], 720 nM.

As for `O=C(Nc1ccc2cc1CCc1cccc(c1)Nc1ncc(Cl)c(n1)N2)C1CCC1` [Example B57, N-[6-Chloro-2,4,8,22-tetraazatetracyclo[14.3.1.1(3,7).1(9,13)]docosa-1(20), 3(22),4,6,9(21),10,12,16,18-nonaen-12-yl]cyclobutanecarboxamide hydrochloride], the IC50 in assay [1] came to 12 nM; in assay [2], 5.3 nM; in assay [3] it was 18 nM; on TYK2, 39 nM; in assay [4], 2200 nM.
